The record followed here is patent publication US20150119476A1, “DEVELOPMENT, CHARACTERIZATION, AND USE OF AN ANTI-HYPUSINATED eIF5A ANTIBODY TO DIAGNOSE DIABETES” (Indiana University Research and Technology Corp., priority 2013, published 2015).

The subject of one assay is 293T cells. Description: GC7 treatment of transfected 293T cells, immunoblot of cell extracts. Type of assay: cell-based, human. The protocol: (§1) Cell culture, transfection and DHS inhibition—Human 293T and rat INS-1(832/13) β cells were cultured as described. Cells were transiently transfected with plasmids encoding EGFP-eIF5A, EGFP-eIF5A(K50A) and EGFP-DHS constructs using Lipofectamine 2000 (Invitrogen) for 16 hours before cell extraction or immunofluorescence analysis. The DHS inhibitor GC7 (Biosearch Technologies) was prepared and used in cell culture as previously described.
(§2) Antibodies and immunoblotting—The rabbit polyclonal antibody IU-88 against hypusinated human eIF5A was generated in rabbits using the synthetic hypusine-containing peptide C-Ahx-STSKTG[hypusine]HGHAKV-amide (SEQ ID NO. 1) by contract to 21st Century Biochemicals. Monoclonal mouse pan-anti-eIF5A antibody was from BD Biosciences and anti-actin antibody was from MP Biomedicals. Immunoblot analysis was visualized using a LiCor Odyssey fluorescence system following electrophoresis on a 4-20% SDS polyacrylamide gel. Primary antibodies were diluted 1:1500 (IU-88) and 1:10,000 (anti-pan-eIF5A).
Referring now to FIG. 1D. When 293T cells are transfected with GFP-eIF5A, a weak but detectable signal corresponding to GFP-eIF5A is observed using IU-88 (lane 1).

A further assay deals with T1, DHS (Homo sapiens, UniProt P49366).
T1 construct: His6 (N); made in house; host or cells: E. coli
T1 sequence (P49366 1-369): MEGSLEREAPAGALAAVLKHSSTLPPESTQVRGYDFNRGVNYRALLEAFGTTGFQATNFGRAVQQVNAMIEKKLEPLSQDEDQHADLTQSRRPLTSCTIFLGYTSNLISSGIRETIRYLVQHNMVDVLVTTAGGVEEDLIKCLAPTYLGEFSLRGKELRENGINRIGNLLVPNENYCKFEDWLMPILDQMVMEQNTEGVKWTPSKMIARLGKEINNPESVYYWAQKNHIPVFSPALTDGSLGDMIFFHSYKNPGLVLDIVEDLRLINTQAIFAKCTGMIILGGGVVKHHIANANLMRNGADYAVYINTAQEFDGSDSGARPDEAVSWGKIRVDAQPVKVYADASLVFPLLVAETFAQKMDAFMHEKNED
Description: in vitro hypusination reaction of recombinant eIF5A with DHS, DHH, spermidine and GC7, immunoblot read-out. Type of assay: biochemical.
Description: Reactions in vitro—For in vitro experiments, eIF5A protein was purified from E. coli as a GST fusion, after which the GST tag was proteolytically removed. DHS protein was purified from E. coli as an N-terminal His6 fusion. Purified human DHH protein was purchased from OriGene. The hypusination reactions in vitro proceeded as previously published.
as §2
In order to determine if IU-88 specifically recognizes the deoxyhypusine or hypusine forms of eIF5A, immunoblots of reactions in which recombinant human eIF5A was incubated in vitro with DHS, DHH, spermidine, and/or the potent DHS inhibitor GC7 were performed. Referring now to FIG. 1A. […] Increasing the DHS concentration and time of incubation led to increasing eIF5A signal intensity in these studies (data not shown).

The next assay relates to INS-1 β cells. Description: GC7 treatment of transfected INS-1 cells, immunoblot of cell extracts. The assay is classed as cell-based, rat. The settings on record: increasing GC7 concentrations, FIG. 1E. The protocol: as §1, §2
Referring now to FIG. 1E.

Take `NCCCCCCCN=C(N)N` [GC7]: the “GFP-eIF5A signal detected by IU-88” value in the assay on 293T cells (293T cells co-transfected with GFP-DHS, GC7, FIG. 1D lanes 5 and 6) is listed as “corresponding decrease in the presence of GC7”; in the assay with 293T cells (293T cells transfected with GFP-eIF5A, increasing concentrations of GC7, FIG. 1D lanes 2 and 3) it was “signal decreases further”. In the assay on 293T cells (293T cells, increasing GC7), the “endogenous eIF5A signal recognized by IU-88” value is listed as “observed to decrease with increasing GC7”. In addition, on DHS (co-incubation with 300 nM GC7, FIG. 1A lanes 3 and 6), the “eIF5A signal intensity (IU-88 immunoblot)” value was “reduction in eIF5A signal intensity”. Also, the “inhibition of eIF5A signal intensity (IU-88 immunoblot)” value on DHS (higher concentrations of GC7 up to 10 μM, FIG. 1B) is “near-complete inhibition”. Besides, the “GFP-eIF5A signal observed with IU-88” value in the assay on INS-1 β cells was “reduces the GFP-eIF5A signal observed with IU-88”. Also, the “signal observed with the pan-anti-eIF5A antibody” value in the assay with INS-1 β cells was “also reduces the signal observed with the pan-anti-eIF5A antibody”.
